What all share (format): functional
In assay [1] the test system is UACC-62. The assay can be described thus: Antiproliferative activity against human UACC62 cells assessed as concentration required for total cell growth inhibition after 48 hrs by SRB assay. The note with it: UACC-62, 48 h.
Assay [2] can be described thus: Antiproliferative activity against human NCI-ADR-RES cells assessed as concentration required for total cell growth inhibition after 48 hrs by SRB assay.
For assay [3], the system named is U-251. The assay can be described thus: Antiproliferative activity against human U251 cells assessed as concentration required for total cell growth inhibition after 48 hrs by SRB assay. The conditions noted are these: U-251, 48 h.
In assay [4] the test system is K562. The assay can be described thus: Antiproliferative activity against human K562 cells assessed as concentration required for total cell growth inhibition after 48 hrs by SRB assay. The note with it: K562, 48 h.
In assay [5] the test system is HT-29. The assay can be described thus: Antiproliferative activity against human HT-29 cells assessed as concentration required for total cell growth inhibition after 48 hrs by SRB assay. The note with it: HT-29, 48 h.
The subject of assay [6] is HaCaT. The assay can be described thus: Antiproliferative activity against human HaCaT cells assessed as concentration required for total cell growth inhibition after 48 hrs by SRB assay.
For assay [7], the system named is MCF7. The assay can be described thus: Antiproliferative activity against human MCF7 cells assessed as concentration required for total cell growth inhibition after 48 hrs by SRB assay. The note with it: MCF7, 48 h.
Assay [8] has as its system 786-0. The assay can be described thus: Antiproliferative activity against human 786-0 cells assessed as concentration required for total cell growth inhibition after 48 hrs by SRB assay. The conditions noted are these: 786-0, 48 h.
Assay [9] deals with PC-3. In words: Antiproliferative activity against human PC3 cells assessed as concentration required for total cell growth inhibition after 48 hrs by SRB assay. The note with it: PC-3, 48 h.

For `COc1cccc2c1C(=O)c1c(O)c3c(c(O)c1C2=O)C[C@@](O)(C(=O)CO)C[C@@H]3O[C@H]1C[C@H](N)[C@H](O)[C@H](C)O1` [DOXORUBICIN], the concentration for total growth inhibition (TGI) in assay [1] is 0.2 µM; in assay [2], 10.3 µM; in assay [3], 2.1 µM; in assay [4], 45.5 µM; in assay [5] it was 3.6 µM; in assay [6] it was 0.4 µM. In addition, the TGI in assay [7] is 4.9 µM; in [8] it was 1 µM; in assay [9] it was 2.5 µM.

For `COc1ccc(/C=C/C2(C)C=CC(=O)O2)c(OC)c1OC` (stereo not given), the TGI in assay [1] was 71.5 µM; in assay [2] it was 349 µM; in [3], 87.2 µM; in assay [4] it was above 1000 µM; in assay [5] it was 133 µM; in assay [6], 217 µM. Also, the concentration for total growth inhibition (TGI) came out at 110 µM in [7], 132 µM in [8] and 90 µM in assay [9].

Turning to `CC1(/C=C/c2ccc(O)cc2)C=CC(=O)O1` (stereo not given), the TGI in [1] was 55.3 µM; in assay [2], 111 µM; in assay [3], 107 µM; in assay [4], above 1000 µM; in assay [5], 122 µM; in assay [6] it was 81.2 µM. For the same molecule, the values for the TGI in [7], in assay [8] and in assay [9] were 69.1 µM, 143 µM and 138 µM, respectively.

Take `COc1ccc(/C=C/C2(C)C=CC(=O)O2)cc1OC` (stereo not given): the TGI is 84.1 µM in [1]; 111 µM in [2]; 192 µM in assay [3]; above 1000 µM in assay [4]; 927 µM in assay [5]; 838 µM in assay [6]. Moreover, the values for the concentration for total growth inhibition (TGI) in assay [7], in assay [8] and in assay [9] were 78.9 µM, 22.9 µM and 176 µM, respectively.

In the case of `CC1(/C=C/c2ccccc2)C=CC(=O)O1` (stereo not given), the TGI was 97.2 µM in [1]; 414 µM in [2]; 89.8 µM in [3]; above 1000 µM in assay [4]; 123 µM in assay [5]; 119 µM in assay [6]. In addition, the values for the TGI in assay [7], in [8] and in assay [9] were 95.3 µM, 170 µM and 86.9 µM, respectively.

In the case of `C[C@]1(/C=C/c2ccccc2)CC=CC(=O)O1`, the TGI in assay [1] was 37.2 µM; in [2], 107 µM; in assay [3], 27.5 µM; in [4], above 1000 µM; in [5], 41.1 µM; in [6], 50.7 µM. Also, the TGI came to 48 µM in assay [7], 68.7 µM in assay [8] and 31.7 µM in assay [9].

Regarding `COc1cc(OC)c(/C=C/C2(C)C=CC(=O)O2)c(OC)c1` (stereo not given), the TGI is 208 µM in assay [1]; 229 µM in assay [2]; 193 µM in [3]; above 1000 µM in [4]; 127 µM in [5]; 458 µM in assay [6]. The figures for the TGI in assay [7], in assay [8] and in assay [9] were 102 µM, 459 µM and 239 µM, respectively.

In the case of `COc1cc(/C=C/C2(C)C=CC(=O)O2)cc(OC)c1O` (stereo not given), the TGI is 24.6 µM in assay [1]; 51.6 µM in assay [2]; 40.7 µM in assay [3]; above 1000 µM in [4]; 19.1 µM in [5]; 64.4 µM in [6]. Moreover, the TGI stood at 45.3 µM in assay [7], 108 µM in assay [8] and 131 µM in assay [9].

For `CC1(/C=C/c2cccc(O)c2)C=CC(=O)O1` (stereo not given), the TGI in [1] was 108 µM; in assay [2], 647 µM; in assay [3], 118 µM; in assay [4] it was above 1000 µM; in assay [5], 97.4 µM; in assay [6], 88.1 µM. The TGI stood at 124 µM in assay [7], 196 µM in assay [8] and 98.8 µM in assay [9].

Regarding `COc1cc(OC)c(OC)cc1/C=C/C1(C)C=CC(=O)O1` (stereo not given), the TGI in [1] was 127 µM; in [2], 158 µM; in [3], 160 µM; in assay [4] it was above 1000 µM; in assay [5], 127 µM; in [6], 180 µM. Besides, the figures for the TGI in assay [7], in assay [8] and in assay [9] were 144 µM, 205 µM and 184 µM, respectively.

Turning to `CC1(/C=C/c2ccccc2O)C=CC(=O)O1` (stereo not given), the TGI in assay [1] was 92.5 µM; in assay [2] it was 78 µM; in [3], 70.9 µM; in assay [4], above 1000 µM; in assay [5], 31.3 µM; in assay [6] it was 57.3 µM. Further, the TGI was 46.2 µM in [7], 136 µM in [8] and 112 µM in assay [9].

With `CC1(/C=C/c2ccc(C(F)(F)F)cc2)C=CC(=O)O1` (stereo not given), the TGI in [1] amounted to 15.5 µM; in assay [2] it was 9.4 µM; in assay [3] it was 15.7 µM; in [4] it was 652 µM; in assay [5] it was 12.3 µM; in assay [6], 12.1 µM. Further, the TGI in assay [7] came to 20.4 µM; in assay [8], 34 µM; in assay [9], 13.1 µM.

For `CC1(/C=C/c2ccc(F)cc2)C=CC(=O)O1` (stereo not given), the TGI in assay [1] was 55.3 µM; in assay [2] it was 25.7 µM; in assay [3], 60.8 µM; in assay [4], above 1000 µM; in [5], 34.9 µM; in assay [6], 47.5 µM. Moreover, the TGI in assay [7] came out at 38.5 µM; in [8], 101 µM; in assay [9], 46.5 µM.

In the case of `COc1ccccc1/C=C/C1(C)C=CC(=O)O1` (stereo not given), the TGI was determined as 31 µM in assay [1]; 64.5 µM in [2]; 41.1 µM in assay [3]; 860 µM in [4]; 30.8 µM in assay [5]; 30.8 µM in [6]. Besides, the TGI in [7] came to 27 µM; in assay [8] it was 35.4 µM; in assay [9], 34.2 µM.

Turning to `COc1cccc(/C=C/C2(C)C=CC(=O)O2)c1` (stereo not given), the TGI in assay [1] was 55.8 µM; in [2] it was 48.6 µM; in assay [3], 37.6 µM; in assay [4], above 1000 µM; in assay [5] it was 17 µM; in assay [6] it was 5.7 µM. The TGI in assay [7] is 25.3 µM; in assay [8] it was 70 µM; in assay [9], 31.6 µM.

For the molecule `CC1(/C=C/c2ccccc2C(F)(F)F)C=CC(=O)O1` (stereo not given), the TGI in assay [1] stood at 17.7 µM; in assay [2] it was 12.2 µM; in assay [3], 14.1 µM; in assay [4] it was 573 µM; in assay [5], 15.8 µM; in [6], 12.7 µM. The TGI in assay [7] was found to be 13.5 µM; in assay [8], 27.9 µM; in assay [9], 17.9 µM.

Consider `COc1ccc(/C=C/C2(C)C=CC(=O)O2)cc1` (stereo not given), for which the TGI is 147 µM in assay [1]; above 1000 µM in assay [2]; 127 µM in [3]; above 1000 µM in assay [4]; 92.9 µM in [5]; 316 µM in assay [6]. Moreover, the TGI in [7] was 183 µM; in [8] it was above 1000 µM; in assay [9] it was 145 µM.

Consider `COc1ccc(/C=C/C2(C)C=CC(=O)O2)c(OC)c1` (stereo not given), for which the TGI in assay [1] is 80.1 µM; in assay [2], 151 µM; in [3], 62.8 µM; in assay [4], above 1000 µM; in [5], 57.5 µM; in [6], 53.6 µM. In addition, the TGI turned out to be 43.5 µM in assay [7], 108 µM in assay [8] and 63.5 µM in assay [9].

Consider `COc1cc(/C=C/C2(C)C=CC(=O)O2)cc(OC)c1OC` (stereo not given), for which the TGI in assay [1] is 178 µM; in assay [2], 123 µM; in [3], 125 µM; in assay [4] it was above 1000 µM; in assay [5] it was 390 µM; in [6], 175 µM. Further, the TGI in [7] worked out at 56.6 µM; in assay [8] it was 116 µM; in assay [9], 131 µM.

As for `O=C1C=CC[C@H](/C=C/c2ccccc2)O1` [GONIOTHALAMIN], the TGI in assay [1] is 17.4 µM; in assay [2], 14.5 µM; in [3] it was 9.8 µM; in assay [4], 927 µM; in assay [5] it was 10 µM; in assay [6] it was 13.4 µM. Besides, the TGI in assay [7] turned out to be 11.2 µM; in [8], 13.9 µM; in [9] it was 9.6 µM.

(Values after ChEMBL document CHEMBL2412995, “Design, synthesis and in vitro evaluation against human cancer cells of 5-methyl-5-styryl-2,5-dihydrofuran-2-ones, a new series of goniothalamin analogues” (2013).)
